A word on the EC50: it is the concentration giving half of the maximal effect.

This is an account of results in patent US20260078130A1, “NAMPT MODULATORS, PREPARATIONS, AND USES THEREOF” (SIRONAX LTD., priority 2022, published 2026).

The target in test [1] is T1, human enzyme NAMPT (full length) (Homo sapiens, UniProt P43490).
T1 construct: human enzyme NAMPT (full length)
In words: NMN fluorescence biochemical assay (stimulation of NMN synthesis by NAMPT). The following applies: for EC50: concentration giving half-maximal activation, read-out: Enzymatic EC50; for Enzymatic Emax: fold change of maximal activation compared to DMSO. In short, it runs like this:
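Full-length human NAMPT (100 nM) was preincubated 15 min at 37 °C with compound in 50 mM Tris-HCl pH 7.5, 10 mM MgCl2, 2 mM DTT, then reacted 1 h at 37 °C with 50 μM NAM, 100 μM PRPP, 4 mM ATP (stated solution concentrations). NMN was derivatised with acetophenone/KOH then formic acid and read at Ex/Em 382/445 nm; EC50 and Emax (fold over DMSO) reported.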

In test [2] the test system is endogenous NAMPT in U2OS cells. Briefly: Cellular NAD+ modulation assay (NAD/NADH-Glo, U2OS cells). The test is classed as cell-based. The conditions noted are these: Homo sapiens; for maximal fold induction: read-out: Cellular Emax. The procedure, abridged:
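Endogenous NAMPT stimulation in U2OS cells treated with compound dilution series for 24 h at 37 °C. Cells lysed with DTAB base, acid-treated 15 min at 60 °C, neutralized, NAD+ read by NAD/NADH-Glo luminescence after 40 min at room temperature. EC50 and Emax (fold over DMSO) derived.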

The mark [3] stands for this setting: NMN fluorescence assay, purified human NAMPT 100 nM.
Where [4] appears, read: 24 hours incubation, cellular NAD+.
Setting [5] is: NMN synthesis by purified human NAMPT (100 nM).
Where [6] appears, read: 24 hours incubation with compound.

Read-outs that look alike come from different tables or passages of the source. Bounds are passed on as bounds.

T1 sequence (P43490 whole entry): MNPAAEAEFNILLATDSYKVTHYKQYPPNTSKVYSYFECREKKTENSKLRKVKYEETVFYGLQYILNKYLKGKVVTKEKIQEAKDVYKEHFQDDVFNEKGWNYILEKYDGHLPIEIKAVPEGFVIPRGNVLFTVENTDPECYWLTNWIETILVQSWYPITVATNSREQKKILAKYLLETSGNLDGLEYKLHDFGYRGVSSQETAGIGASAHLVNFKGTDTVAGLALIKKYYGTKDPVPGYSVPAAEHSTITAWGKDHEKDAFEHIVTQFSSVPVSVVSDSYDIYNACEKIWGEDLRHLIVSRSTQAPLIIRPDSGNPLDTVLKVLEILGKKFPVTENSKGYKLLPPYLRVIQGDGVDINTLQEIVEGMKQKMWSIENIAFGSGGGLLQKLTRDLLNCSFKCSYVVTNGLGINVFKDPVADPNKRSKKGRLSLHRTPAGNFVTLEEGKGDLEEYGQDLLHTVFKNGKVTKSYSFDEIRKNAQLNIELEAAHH

`Cc1nnn2cc(CN3C(=O)c4ccccc4C3Cc3c(Cl)cnn3C)ccc12` (stereo not shown) [Compound 627, 3-((4-chloro-1-methyl-1H-pyrazol-5-yl)methyl)-2-((3-methyl-[1,2,3]triazolo[1,5-a]pyridin-6-yl)methyl)isoindolin-1-one]: the EC50 in test [1] (setting [3]) is at least 5 µM. Moreover, in test [1], the “Enzymatic Emax” value is “B (3≥B>2)”. Also, in test [2] (setting [4]), the EC50 was 0.5 to 5 µM and the maximal fold induction lay in the range of 1.2 to 1.5.
For the molecule `Cn1ncc(Cl)c1CC1c2ccccc2C(C)(C)N1Cc1ccc2[nH]nnc2c1` (stereo not shown) [Compound 608, 5-((3-((4-chloro-1-methyl-IH-pyrazol-5-yl)methyl)-1,1-dimethylisoindolin-2-yl)methyl)-1H-benzo[d][1,2,3]triazole], the EC50 in test [1] (setting [3]) is below 0.5 µM. For the same molecule, in test [1], the “Enzymatic Emax” value was “A (A>3)”. For the same molecule, in test [2] (setting [4]), the EC50 fell in the range of 0.5 to 5 µM and the maximal fold induction is above 1.5.
For `COc1ccc(CN2C(=O)c3ccccc3C2Cc2ncccc2Br)cc1` (stereo not shown) [Compound 415, 3-((3-bromopyridin-2-yl)methyl)-2-(4-methoxybenzyl)isoindolin-1-one], in that order: 0.5 to 5 µM, “B (3≥B>2)”, below 0.5 µM and 1.2 to 1.5.
Turning to `Cn1ncc(Cl)c1CC1c2ccccc2C(=O)N1Cc1ccc2c(c1)ncn2C` (stereo not shown) [Compound 585, 3-((4-chloro-1-methyl-1H-pyrazol-5-yl)methyl)-2-((1-methyl-1H-benzo[d]imidazol-5-yl)methyl)isoindolin-1-one], the EC50 in test [1] (setting [3]) lay in the range of 0.5 to 5 µM. The “Enzymatic Emax” value in test [1] was “B (3≥B>2)”. Also, in test [2] (setting [4]), the EC50 lay in the range of 0.5 to 5 µM and the maximal fold induction was above 1.5.
As to `Cc1ccc2c(c1)C(=O)N(Cc1ccc3[nH]nnc3c1)C2=O` [Compound 37, 2-((1H-benzo[d][1,2,3]triazol-5-yl)methyl)-5-methylisoindoline-1,3-dione], the EC50 in test [1] (setting [5]) is at least 5 µM. Moreover, the “Enzymatic Emax” value in test [1] is reported as “A (A>3)”. For the same molecule, in test [2] (setting [6]), the 50% effective concentration (EC50) was in the range of 0.5 to 5 µM and the maximal fold induction was at most 1.2.
For `COC(=O)Nc1ccc(CN2Cc3ccccc3C2=O)cc1` [Compound 294, methyl (4-((1-oxoisoindolin-2-yl)methyl)phenyl)carbamate], in that order: at least 5 µM, “C (2≥C)”, 5 to 50 µM and above 1.5.
On to `COc1ccc(CN2C(=O)c3ncsc3C2Cc2c(Cl)cnn2C)cc1` (stereo not shown) [Compound 615, 6-((4-chloro-1-methyl-1H-pyrazol-5-yl)methyl)-5-(4-methoxybenzyl)-5,6-dihydro-4H-pyrrolo[3,4-d]thiazol-4-one], for which the EC50 in test [1] (setting [3]) is at least 5 µM. Moreover, the “Enzymatic Emax” value in test [1] was “B (3≥B>2)”. In test [2] (setting [4]), the EC50 was in the range of 0.5 to 5 µM and the maximal fold induction fell in the range of 1.2 to 1.5.
Consider `CC1(C)c2ccccc2C(=O)N1Cc1ccc2[nH]c(=O)oc2c1` [Compound 52, 6-((1,1-dimethyl-3-oxoisoindolin-2-yl)methyl) benzo[d]oxazol-2(3H)-one], for which, in test [1] (setting [5]), the EC50 was at least 5 µM. Also, the “Enzymatic Emax” value in test [1] is recorded as “B (3≥B>2)”. Further, in test [2] (setting [6]), the EC50 was in the range of 0.5 to 5 µM and the maximal fold induction is above 1.5.
Regarding `CSc1ccc(CN2C(=O)c3ccccc3C2Cc2c(Cl)cnn2C)cc1` (stereo not shown) [Compound 542, 3-((4-chloro-1-methyl-1H-pyrazol-5-yl)methyl)-2-(4-(methylthio)benzyl)isoindolin-1-one], in test [1] (setting [3]), the EC50 is at least 5 µM. Besides, the “Enzymatic Emax” value in test [1] was “B (3≥B>2)”. Moreover, in test [2] (setting [4]), the EC50 lay in the range of 0.5 to 5 µM and the maximal fold induction lay within 1.2 to 1.5.
Regarding `O=C1c2ccccc2C(Cc2ncccc2Cl)N1Cc1ccc2[nH]c(=O)oc2c1` (stereo not shown) [Compound 159, 6-((1-((3-chloropyridin-2-yl)methyl)-3-oxoisoindolin-2-yl)methyl)benzo[d]oxazol-2(3H)-one], the concentration giving a half-maximal response (EC50) in test [1] (setting [5]) was below 0.5 µM. For the same molecule, in test [1], the “Enzymatic Emax” value is given as “A (A>3)”. Moreover, in test [2] (setting [6]), the EC50 was below 0.5 µM and the maximal fold induction was above 1.5.
On to `Cn1ncc(Cl)c1CC1c2cc(Cl)ccc2C(=O)N1CC1CC2(CNC(=O)O2)C1` (stereo not shown) [Compound 474, 2-((5-chloro-3-((4-chloro-1-methyl-1H-pyrazol-5-yl)methyl)-1-oxoisoindolin-2-yl)methyl)-5-oxa-7-azaspiro[3.4]octan-6-one], for which the EC50 in test [1] (setting [3]) was in the range of 0.5 to 5 µM. The “Enzymatic Emax” value in test [1] was “B (3≥B>2)”. Also, in test [2] (setting [4]), the EC50 is below 0.5 µM and the maximal fold induction is above 1.5.
Turning to `Cn1ncc(Cl)c1CC1c2cc(CN3CCOCC3)ccc2C(=O)N1Cc1ccc2[nH]nnc2c1` (stereo not shown) [Compound 325, 2-((1H-benzo[d][1,2,3]triazol-5-yl)methyl)-3-((4-chloro-1-methyl-1H-pyrazol-5-yl)methyl)-5-(morpholinomethyl)isoindolin-1-one], the EC50 in test [1] (setting [3]) was below 0.5 µM. Besides, the “Enzymatic Emax” value in test [1] is given as “A (A>3)”. In addition, in test [2] (setting [4]), the EC50 was below 0.5 µM and the maximal fold induction is above 1.5.
Take `O=C1c2ccccc2C(Cc2ccccn2)N1Cc1ccc2[nH]c(=O)oc2c1` (stereo not shown) [Compound 129, 6-((1-oxo-3-(pyridin-2-ylmethyl)isoindolin-2-yl)methyl)benzo[d]oxazol-2(3H)-one]: the EC50 in test [1] (setting [5]) lay in the range of 0.5 to 5 µM. In addition, the “Enzymatic Emax” value in test [1] is listed as “A (A>3)”. In test [2] (setting [6]), the EC50 lay within 0.5 to 5 µM and the maximal fold induction was above 1.5.
On to `Cn1ncc(Cl)c1CC1c2ccccc2C(=O)N1Cc1ccc2nonc2c1` (stereo not shown) [Compound 600, 2-(benzo[c][1,2,5]oxadiazol-5-ylmethyl)-3-((4-chloro-1-methyl-IH-pyrazol-5-yl)methyl)isoindolin-1-one], for which the EC50 was at least 5 µM in test [1] (setting [3]) and 5 to 50 µM in test [2] (setting [4]). Also, the “Enzymatic Emax” value in test [1] was “C (2≥C)”. The maximal fold induction in test [2] (setting [4]) is at most 1.2.
On to `O=C1c2ccccc2C(Cc2nccs2)N1Cc1ccc2[nH]c(=O)oc2c1` (stereo not shown) [Compound 140, 6-((1-oxo-3-(thiazol-2-ylmethyl)isoindolin-2-yl)methyl) benzo[d]oxazol-2(3H)-one], for which, in test [1] (setting [5]), the EC50 was at least 5 µM. Moreover, in test [1], the “Enzymatic Emax” value is on record as “A (A>3)”. In test [2] (setting [6]), the EC50 lay within 0.5 to 5 µM and the maximal fold induction is above 1.5.
For the molecule `Cc1nn(C)c(C#N)c1CC1c2ccccc2C(=O)N1Cc1ccc2[nH]nnc2c1` (stereo not shown) [Compound 341, 4-((2-((1H-benzo[d][1,2,3]triazol-5-yl)methyl)-3-oxoisoindolin-1-yl)methyl)-1,3-dimethyl-1H-pyrazole-5-carbonitrile], the EC50 in test [1] (setting [3]) and in test [2] (setting [4]) was below 0.5 µM each time. In test [1], the “Enzymatic Emax” value was “A (A>3)”. In addition, the maximal fold induction in test [2] (setting [4]) is above 1.5.
On to `Cn1ncc(Cl)c1C[C@H]1c2ccccc2C(=O)N1C/C=C/c1c[nH]nn1` [Compound 312, (S,E)-2-(3-(1H-1,2,3-triazol-4-yl)allyl)-3-((4-chloro-1-methyl-1H-pyrazol-5-yl)methyl) isoindolin-1-one], for which, in test [1] (setting [5]), the EC50 was below 0.5 µM. The “Enzymatic Emax” value in test [1] is recorded as “B (3≥B>2)”. Further, in test [2] (setting [6]), the EC50 is below 0.5 µM and the maximal fold induction is above 1.5.
Consider `Cc1ccn(C)c(=O)c1CC1c2ccccc2C(=O)N1CC1CC2(CNC(=O)O2)C1` (stereo not shown) [Compound 481, 2-((1-((1,4-dimethyl-2-oxo-1,2-dihydropyridin-3-yl)methyl)-3-oxoisoindolin-2-yl)methyl)-5-oxa-7-azaspiro[3.4]octan-6-one], for which the EC50 in test [1] (setting [3]) is 0.5 to 5 µM. In addition, in test [1], the “Enzymatic Emax” value is reported as “B (3≥B>2)”. For the same molecule, in test [2] (setting [4]), the EC50 was in the range of 0.5 to 5 µM and the maximal fold induction was above 1.5.
Take `Cn1ncc(Cl)c1CC1c2cc(CN3CC4(COC4)C3)ccc2C(=O)N1CC1CC2(CNC(=O)O2)C1` (stereo not shown) [Compound 512, 2-((5-((2-oxa-6-azaspiro[3.3]heptan-6-yl)methyl)-3-((4-chloro-1-methyl-1H-pyrazol-5-yl)methyl)-1-oxoisoindolin-2-yl)methyl)-5-oxa-7-azaspiro[3.4]octan-6-one]: the EC50 in test [1] (setting [3]) was in the range of 0.5 to 5 µM. The “Enzymatic Emax” value in test [1] is listed as “B (3≥B>2)”. In addition, in test [2] (setting [4]), the EC50 was in the range of 0.5 to 5 µM and the maximal fold induction was above 1.5.
Consider `CC1c2cc(CN3CCCC3)ccc2C(=O)N1Cc1ccc2[nH]c(=O)oc2c1` (stereo not shown) [Compound 96, 6-((3-methyl-1-oxo-5-(pyrrolidin-1-ylmethyl)isoindolin-2-yl)methyl)benzo[d]oxazol-2(3H)-one], for which the EC50 in test [1] (setting [5]) is at least 5 µM; in test [2] (setting [6]), 0.5 to 5 µM. In addition, the “Enzymatic Emax” value in test [1] was “A (A>3)”. Besides, the maximal fold induction in test [2] (setting [6]) was above 1.5.
Turning to `O=C1c2ccccc2CN1Cc1ccc2[nH]nnc2c1` [Compound 289, 2-((1H-benzo[d][1,2,3]triazol-5-yl)methyl)isoindolin-1-one], the EC50 in test [1] (setting [5]) was at least 5 µM. Further, the “Enzymatic Emax” value in test [1] was “C (2≥C)”. Also, in test [2] (setting [6]), the EC50 fell in the range of 5 to 50 µM and the maximal fold induction fell in the range of 1.2 to 1.5.
`Cn1ncc(Cl)c1CC1c2ccccc2C2(CC2)N1CC1CC2(CNC(=O)O2)C1` (stereo not shown) [Compound 539, 2-((3′-((4-chloro-1-methyl-1H-pyrazol-5-yl)methyl)spiro[cyclopropane-1,1′-isoindolin]-2′-yl)methyl)-5-oxa-7-azaspiro[3.4]octan-6-one]: the EC50 in test [1] (setting [3]) was at least 5 µM. The “Enzymatic Emax” value in test [1] is “B (3≥B>2)”. Moreover, in test [2] (setting [4]), the EC50 was in the range of 0.5 to 5 µM and the maximal fold induction is 1.2 to 1.5.
